This note sets out measurements from patent US20220372067A1, “3.ALPHA.-HYDROXY-17.BETA.-AMIDE NEUROACTIVE STEROIDS AND COMPOSITIONS THEREOF” (SAGE THERAPEUTICS, INC., priority 2018, published 2022).

In this test the target is GABAA receptor (TBPS binding site), rat brain cortical membranes. Put plainly: [35S]-TBPS binding assay, rat brain cortical membranes in the presence of 5 mM GABA. The following applies: inhibition of 3 nM [35S]-TBPS binding. The method, then: [^35S]-t-Butylbicyclophosphorothionate (TBPS) binding assays using rat brain cortical membranes in the presence of 5 mM GABA has been described (Gee et al, J. Pharmacol. Exp. Ther. 1987, 241, 346-353; Hawkinson et al, Mol. Pharmacol. 1994, 46, 977-985; Lewin, A. H et al., Mol. Pharmacol. 1989, 35, 189-194).
Briefly, cortices are rapidly removed following decapitation of carbon dioxide-anesthetized Sprague-Dawley rats (200-250 g). The cortices are homogenized in 10 volumes of ice-cold 0.32 M sucrose using a glass/teflon homogenizer and centrifuged at 1500×g for 10 min at 4° C. The resultant supernatants are centrifuged at 10,000×g for 20 min at 4° C. to obtain the P2 pellets. The P2 pellets are resuspended in 200 mM NaCl/50 mM Na—K phosphate pH 7.4 buffer and centrifuged at 10,000×g for 10 min at 4° C. This washing procedure is repeated twice and the pellets are resuspended in 10 volumes of buffer. Aliquots ([…]) of the membrane suspensions are incubated with 3 nM [^35S]-TBPS and […] aliquots of test drug dissolved in dimethyl sulfoxide (DMSO) (final 0.5%) in the presence of 5 mM GABA. The incubation is brought to a final volume of 1.0 mL with buffer. Nonspecific binding is determined in the presence of […] and ranged from 15 to 25%. Following a 90 min incubation at room temp, the assays are terminated by filtration through glass fiber filters (Schleicher and Schuell No. 32) using a cell harvester (Brandel) and rinsed three times with ice-cold buffer. Filter bound radioactivity is measured by liquid scintillation spectrometry. Non-linear curve fitting of the overall data for each drug averaged for each concentration is done using Prism (GraphPad). […] The concentration of test compound producing 50% inhibition (IC50) of specific binding and the maximal extent of inhibition (Imax) are determined for the individual experiments with the same model used for the overall data and then the means±SEM.s of the individual experiments are calculated.
Various compounds are or can be screened to determine their potential as modulators of [^35S]-TBPS binding in vitro. These assays are or can be performed in accordance with the above

Each structure is given as a SMILES string.

On to `CCC[C@@]1(O)CC[C@H]2[C@H](CC[C@@H]3[C@@H]2CC[C@]2(C)[C@@H](C(=O)Nc4ccc(C#N)cn4)CC[C@@H]32)C1` [Example 67, (3R,5R,8R,9R,10S,13S,14S,17S)-N-(5-cyanopyridin-2-yl)-3-hydroxy-13-methyl-3-propylhexadecahydro-1H-cyclopenta[a]phenanthrene-17-carboxamide], for which the IC50 was less than 100 nM. As for `CCC[C@@]1(O)CC[C@@]2(C)[C@H](CC[C@@H]3[C@@H]2CC[C@]2(C)[C@@H](C(=O)Nc4ccc(C#N)cn4)CC[C@@H]32)C1` [Example 68, (3R,5R,8R,9S,10S,13S,14S,17S)-N-(5-cyanopyridin-2-yl)-3-hydroxy-10, 13-dimethyl-3-propylhexadecahydro-1H-cyclopenta[a]phenanthrene-17-carboxamide], the figure is less than 100 nM.

One may read the IC50 as the concentration that inhibits the measured activity by half.
